This is an account of results in ChEMBL document CHEMBL4138123, “Design, synthesis and biological evaluation of novel pyrazolochalcones as potential modulators of PI3K/Akt/mTOR pathway and inducers of apoptosis in breast cancer cells” (Eur J Med Chem, 2017).

Each structure is given as a SMILES string.

The test system of one assay is MDA-MB-435. The assay is described as follows: Cytotoxicity against human MDA-MB-435 cells assessed as growth inhibition after 48 hrs by sulforhodamine B assay. It is filed as functional. To be noted: MDA-MB-435, 48 h. A general note: Sulforhodamine B stains cellular protein and so reports cell mass.
The next assay has as its system SF-268. The assay is described as follows: Cytotoxicity against human SF268 cells assessed as growth inhibition after 48 hrs by sulforhodamine B assay. It is filed as functional. To be noted: SF-268, 48 h.
In another assay the test system is T47D. The assay is described as follows: Cytotoxicity against human T47D cells assessed as growth inhibition after 48 hrs by sulforhodamine B assay. It is filed as functional.
The subject of assay [1] is MDA-MB-231. The assay is described as follows: Cytotoxicity against human MDA-MB-231 cells assessed as growth inhibition after 48 hrs by sulforhodamine B assay. It is filed as functional. Particulars: MDA-MB-231, 48 h.
Assay [2] has as its system MDA-MB-231. The assay is described as follows: Cytotoxicity against human MDA-MB-231 cells assessed as growth inhibition after 48 hrs by MTT assay. It is filed as functional, cell-based. To be noted: MDA-MB-231, 48 h. (Tetrazolium assays rely on reduction of a dye to a coloured formazan, in cell work by metabolically active cells.)

Broadly, the GI50 is the concentration at which growth is held to half of that of the control. Broadly, the IC50 is the midpoint of a concentration-inhibition curve. `COc1ccc(-c2cc(/C=C/C(=O)c3ccc4c(c3)OCO4)[nH]n2)cc1OC`: the GI50 in the assay on MDA-MB-435 amounted to 1.72 µM; in the assay on SF-268 it was 2.09 µM; in the assay on T47D, 1.36 µM; in the assay on MDA-MB-231 [1], 1.88 µM. Moreover, the IC50 in the assay on MDA-MB-231 [2] stood at 2.3 µM.
